Data: patent US9134328B2, “Methods of using benzothiazole derivative compounds and compositions” (University of Pittsburgh—Of the Commonwealth System of …, priority 2003, dated 2015)

Legend:
[1] = In vivo mouse brain entry studies; set-up: species or system female Swiss-Webster mice
Procedure: This study reflects brain entry and clearance from normal brain tissue.
The mice were anesthetized and killed by cardiac excision following cardiac puncture to obtain arterial blood samples at 2 minutes or 30 minutes post-injection. The mouse brains were rapidly excised and divided into the cerebellum and the remaining whole brain (including brain stem) fractions. The brain samples were counted in a gamma well-counter, and the counts were decay-corrected to the time of injection relative to ^125I or ^18F standards prepared from the injection solution to determine the percent injected dose (% ID) in the samples. The brain samples were weighed to determine the percent injected dose per gram tissue (% ID/g), and this quantity was multiplied by the whole body weight (in kg) to determine the body-weight normalized radioactivity concentration [(% ID-kg)/g] of each tissue sample.

[2] = In vivo baboon PET imaging studies; conditions: for peak maximum radioactivity remaining in brain at later time points / early-to-late brain radioactivity concentration: baboon brain; for early-to-late brain radioactivity concentration: ratio of early to late radioactivity concentration; for rate of non-specific clearance (t1/2): baboon cerebellum (reference region devoid of specific binding); for higher concentration of radioactivity at 90 minutes in white matter regions than in gray matter regions / clearance half-time from baboon brain gray matter / brain penetration of radioactivity at early time points: control baboon; for higher concentration of radioactivity at 90 minutes in white matter regions than in gray matter regions: 90 minutes post-injection, white matter vs gray matter such as temporal cortex; for clearance half-time from baboon brain gray matter / brain penetration of radioactivity at early time points: intravenous injection; for clearance half-time from baboon brain gray matter: PET; for brain penetration of radioactivity at early time points: PET time-activity curve, all three brain regions
Procedure: PET imaging studies in adult baboons (Papio anubis) (weight 15-35 kg, ages 6-12 years) were performed with Compound B and Compound C in accordance with the Guide for the Care and Use of Laboratory Animals adopted by NIH and with the approval of the local Institutional Animal Care and Use Committee. Prior to PET imaging, the animals were initially sedated with ketamine (10-15 mg/kg, i.m.), given atropine (0.5 mg, i.m.) to control salivation and heart rate, and intubated. The baboons were subsequently maintained on a ventilator with isofluorane (0.5-1.25%) anesthesia and medical air. Pancuronium bromide was administered as necessary (intravenously, up to 0.06 mg/kg/hour, titrated to effect) to keep the animals immobilized during the study. A femoral artery catheter was inserted to monitor blood pressure and sample arterial blood, and an intravenous catheter was placed in an antecubital vein for radiotracer injection and to administer fluids as necessary throughout the course of the imaging study. Blood pressure, heart and respiratory rates, and expired CO2 and oxygen saturation levels were monitored continuously during the PET studies. The baseline rectal body temperature (˜37° C.) was maintained using a heating blanket (Gaymar, Orchard Park, N.Y.) and temperature regulator (Yellow Springs Instruments, Yellow Springs, Ohio). Prior to scanning, the baboon's head was fixed so that the image planes were acquired approximately parallel to the orbital-meatal line.
PET data were acquired using an ECAT HR+PET scanner (CTI PET Systems, Knoxyille, Tenn.) in 3D imaging mode (63 parallel slices; 15.2 cm axial field-of-view; 4.1 mm full-width half-maximum in-plane resolution). A Neuro-Insert (CTI PET Systems) was used to reduce the contribution of scattered photon events. After the baboons were positioned in the PET scanner, a windowed transmission scan (10-15 minutes) was obtained for attenuation correction of the PET emission data using rotating ^68Ge/^68Ga rods. Compound B and Compound C were administered intravenously over 20 seconds, and a dynamic series of PET scans were acquired over 90 minutes using 26 frames of increasing length (6×20 seconds; 4×30 seconds; 6×60 seconds; 4×5 minutes; 6×10 minutes). Approximately 185 MBq (˜5 mCi) of a high specific activity (>14.8 GBq/μmol) Compound B or Compound C was injected in a baboon. In other studies, 148-296 MBq (4-8 mCi) of a high specific activity (>18.5 GBq/μmol) reference PET radiotracer was injected, including either [^11C](+)-McN5652, [carbonyl-^11C]WAY100635, or [^18F]altanserin. The PET data were reconstructed using a Hanning filter (Nyquist cut-off) and corrected for decay, photon attenuation, and scatter.
An MRI scan was obtained for each baboon using a 1.5T GE Signa scanner (GE Medical Systems, Milwaukee, Wis.) equipped with a standard head coil. A volumetric spoiled gradient recalled (SPGR) MR sequence with parameters for high contrast among gray matter, white matter, and cerebral spinal fluid (CSF) was acquired in the coronal plane (TE=5, TR=24, flip angle=40°, slice thickness=1.5 mm, NEX=2, field of view 12 cm, voxel size=0.94×1.25×1.5 mm). Each individual baboon's MR image was coregistered to the PET data using the automated image registration (AIR) algorithm for cross-modality image alignment and reslicing. The initial 16 frames ([…] post-injection) of the dynamic PET images were summed together into images consisting of a single frame. Prior to co-registration, both the MR and summed PET images were edited using the ANALYZE software package (Mayo Clinic. Rochester, Minn.) to remove extracerebral tissues that could possibly confound the co-registration process. The edited MR images were then coregistered to the summed PET image and resliced to yield MR images in the same spatial orientation and resolution as the summed PET images.

[3] = baboon cerebellar time-activity curves, reference PET radioligands

SMILES | peak maximum radioactivity remaining in brain at later time points [2] | early-to-late brain radioactivity concentration [2] | rate of non-specific clearance (t1/2) [2] [min] | higher concentration of radioactivity at 90 minutes in white matter regions than in gray matter regions [2] [%] | clearance half-time from baboon brain gray matter [2] | brain penetration of radioactivity at early time points [2] | non-specific binding clearance rate (in words) [2, 3] | other results
CNc1ccc(-c2nc3ccc(O)cc3s2)cc1[18F] [Compound B, 2-(3-[^18F]-fluoro-4-methylamino-phenyl)-benzothiazol-6-ol] | about 25% | about 4 | 17 | ~30 | about 17 minutes | about 0.40 % ID-kg/g | – | 2 min./30 min. Ratio ([1]; mouse, in vivo): 10; Radioactivity Conc. at 2 min. ([1]; mouse, in vivo): 0.29 % ID-kg/g; Radioactivity Conc. at 30 min. ([1]; mouse, in vivo): 0.030 % ID-kg/g; brain entry and clearance (in words) ([1]; mouse, in vivo): relatively high brain entry at early time points and fast clearance at later time points
Oc1ccc2nc(-c3ccc(NCCC[18F])cc3)sc2c1 [Compound C, 2-[4-(3-^18F-fluoro-propylamino)-phenyl]benzothiazol-6-ol] | about 15% | about 6 | 10 | < 10 | about 10 minutes | about 0.22 % ID-kg/g | – | brain entry and clearance (in words) ([1]; mouse brain, 2 and 30 minutes post-injection): relatively high brain entry at early time points and fast clearance at later time points; Radioactivity Conc. at 2 min. ([1]; mouse brain, 2 minutes post-injection, lateral tail vein injection, wild type mice without amyloid deposits): 0.17 % ID-kg/g; Radioactivity Conc. at 30 min. ([1]; mouse brain, 30 minutes post-injection, lateral tail vein injection, wild type mice without amyloid deposits): 0.011 % ID-kg/g; 2 min./30 min. Ratio ([1]; ratio of 2 minutes-to-30 minutes (% ID-kg)/g values, mouse brain, measure of non-specific binding clearance rate): 16
[11CH3]Sc1ccc([C@@H]2CN3CCC[C@@H]3c3ccccc32)cc1 [[^11C](+)-McN5652, reference compound] | – | – | – | – | – | – | relatively slow in vivo clearance | –
O=C(c1ccc([18F])cc1)C1CCN(CCn2c(=S)[nH]c3ccccc3c2=O)CC1 [[^18F]altanserin, reference compound] | – | – | – | – | – | – | relatively rapid non-specific binding clearance rates | –
COc1ccccc1N1CCN(CCN(c2ccccn2)[11C](=O)C2CCCCC2)CC1 [[carbonyl-^11C]WAY100635, reference compound] | – | – | – | – | – | – | – | non-specific binding clearance rate (in words) ([2]; in vivo): relatively rapid non-specific binding clearance rates
